Laboratory results taken from US20190374627A1, “TARGET PEPTIDES FOR CANCER THERAPY AND DIAGNOSTICS” (priority 2016, published 2019).
Square brackets hold non-standard residues; d marks the D form. Ends that are not written are not given here. pT = C[C@@H](OP(=O)(O)O)[C@H](N)C(=O)O

Assays:
[1] = system: CD8^+ T cells (PBMCs); test: Intracellular cytokine staining (ICS) of PBMCs after 7 days of stimulation with MHC-I-pP (healthy donors, HH patients); format: cell-based, human
In short: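 PBMCs or liver lymphocytes from HLA-A*0201-positive healthy donors and hereditary hemochromatosis patients were stimulated for 7 days with HLA-A*0201-restricted phosphopeptides and no added cytokines. After exclusion of doublets and dead cells with a fixable viability dye, CD3^+CD8^+ cells were analysed by intracellular staining for IFN-γ and TNF-α, plus CD107a where needed.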

[2] = system: unexpanded lymphocyte cultures (CD8^+ T cells); test: ICS for MHC-I-pP reactivity of lymphocyte cultures without expansion (Table 23, No Expansion); conditions: HH6
[3] = system: expanded lymphocyte cultures from deceased donor livers, cirrhotic livers and HCC; test: ICS for MHC-I-pP reactivity of liver-derived lymphocyte cultures after phosphopeptide-specific expansion; format: cell-based, human
[4] = system: expanded TIL / IHL cultures; test: ICS for MHC-I-pP reactivity of liver-derived lymphocyte cultures after unspecific rapid expansion protocol (REP); format: cell-based, human

In the case of “FLDtPIAKV: NKD1 phosphopeptide, HLA-A*0201 (FLD[pT]PIAKV; listed as Homo sapiens)”, the “Reactive CD8^+ T cell population, HH2” value ([1]; HH patient HH2) was 0 (<0.25% reactive CD8^-+ T cells), the “Reactive CD8^+ T cell population, HH3” value ([1]; HH patient HH3) was 0 (<0.25% reactive CD8^-+ T cells) and the “Reactive CD8^+ T cell population, HH6” value ([1]; HH patient HH6) was 0 (<0.25% reactive CD8^-+ T cells). For the same substance, the “Reactive CD8^+ T cell population, HH8” value ([1]; HH patient HH8) was 0 (<0.25% reactive CD8^-+ T cells), the “Reactive CD8^+ T cell population, HH11” value ([1]; HH patient HH11) was 0 (<0.25% reactive CD8^-+ T cells) and the “Reactive CD8^+ T cell population, HD1” value ([1]; Healthy donor HD1) was 0 (<0.25% reactive CD8^-+ T cells). For the same substance, the “Reactive CD8^+ T cell population, HD4” value ([1]; Healthy donor HD4) was 0 (<0.25% reactive CD8^-+ T cells), the “Reactive CD8^+ T cell population, HD5” value ([1]; Healthy donor HD5) was 0 (<0.25% reactive CD8^-+ T cells) and the “Reactive CD8^+ T cells, No Expansion, HH6” value [2] was 0 (<0.25% reactive CD8^-+ T cells). For the same substance, the “Reactive CD8^+ T cells, pP-specific Expansion, Do2” value ([3]; pP-specific Expansion, Do2) was 0 (<0.25% reactive CD8^-+ T cells), the “Reactive CD8^+ T cells, pP-specific Expansion, Do4” value ([3]; pP-specific Expansion, Do4) was 0 (<0.25% reactive CD8^-+ T cells) and the “Reactive CD8^+ T cells, pP-specific Expansion, HH6” value ([3]; pP-specific Expansion, HH6) was 2 (2.5-5.0% reactive CD8^-+ T cells). For the same substance, the “ppCTL response, Deceased Donor Liver Do 2” value ([3]; pP-specifically expanded culture, Deceased Donor Liver Do 2) was 0 (<0.25% reactive CD8-+ T cells), the “ppCTL response, Deceased Donor Liver Do 3” value ([3]; pP-specifically expanded culture, Deceased Donor Liver Do 3) was 0 (<0.25% reactive CD8-+ T cells) and the “ppCTL response, Deceased Donor Liver Do 4” value ([3]; pP-specifically expanded culture, Deceased Donor Liver Do 4) was 0 (<0.25% reactive CD8-+ T cells). The “ppCTL response, Deceased Donor Liver Do 6” value ([3]; pP-specifically expanded culture, Deceased Donor Liver Do 6) was 0 (<0.25% reactive CD8-+ T cells), the “ppCTL response, End-stage Liver Cirrhosis IHL 11” value ([3]; pP-specifically expanded culture, End-stage Liver Cirrhosis IHL 11) was 0 (<0.25% reactive CD8-+ T cells) and the “ppCTL response, End-stage Liver Cirrhosis IHL 12” value ([3]; pP-specifically expanded culture, End-stage Liver Cirrhosis IHL 12) was 0 (<0.25% reactive CD8-+ T cells). The “ppCTL response, End-stage Liver Cirrhosis IHL 13” value ([3]; pP-specifically expanded culture, End-stage Liver Cirrhosis IHL 13) was 0 (<0.25% reactive CD8-+ T cells), the “ppCTL response, End-stage Liver Cirrhosis IHL 15” value ([3]; pP-specifically expanded culture, End-stage Liver Cirrhosis IHL 15) was 0 (<0.25% reactive CD8-+ T cells) and the “ppCTL response, HCC Distal HCC 1” value ([3]; pP-specifically expanded culture, HCC 1 Distal) was 0 (<0.25% reactive CD8-+ T cells). The “ppCTL response, HCC Tumor HCC 1” value ([3]; pP-specifically expanded culture, HCC 1 Tumor) was 0 (<0.25% reactive CD8-+ T cells), the “ppCTL response, HCC Distal HCC 4” value ([3]; pP-specifically expanded culture, HCC 4 Distal) was 0 (<0.25% reactive CD8-+ T cells) and the “ppCTL response, HCC Distal HCC 9” value ([3]; pP-specifically expanded culture, HCC 9 Distal) was 0 (<0.25% reactive CD8-+ T cells). The “ppCTL response, HCC Tumor HCC 9” value ([3]; pP-specifically expanded culture, HCC 9 Tumor) was 0 (<0.25% reactive CD8-+ T cells), the “ppCTL response, HCC Distal HCC 12” value ([3]; pP-specifically expanded culture, HCC 12 Distal) was 0 (<0.25% reactive CD8-+ T cells) and the “Reactive CD8^+ T cells, Non-specific Expansion, Do2” value ([4]; Do2) was 1 (0.25-2.5% reactive CD8^-+ T cells). The “Reactive CD8^+ T cells, Non-specific Expansion, Do4” value ([4]; Do4) was 0 (<0.25% reactive CD8^-+ T cells) and the “Reactive CD8^+ T cells, Non-specific Expansion, HH6” value ([4]; HH6) was 0 (<0.25% reactive CD8^-+ T cells).
